These results are taken from patent US9944624B2, “Substituted amino triazoles useful as human chitinase inhibitors” (OncoArendi Therapeutics S.A., priority 2015, dated 2018).

For experiment [1], the target named is recombinant human AMCase (Homo sapiens (Human), UniProt Q9BZP6). Nature of the experiment: Human AMCase activity assay (fluorescent 4MU substrate). It is filed as biochemical. Conditions: citrate buffer pH 5.2, 37° C., 60 minutes; substrate 4-methylumbelliferyl B-D-N,N′-diacetylchitobioside hydrate; read-out: Activity on hAMCase, IC50.
Sequence of recombinant human AMCase (Q9BZP6 22-476): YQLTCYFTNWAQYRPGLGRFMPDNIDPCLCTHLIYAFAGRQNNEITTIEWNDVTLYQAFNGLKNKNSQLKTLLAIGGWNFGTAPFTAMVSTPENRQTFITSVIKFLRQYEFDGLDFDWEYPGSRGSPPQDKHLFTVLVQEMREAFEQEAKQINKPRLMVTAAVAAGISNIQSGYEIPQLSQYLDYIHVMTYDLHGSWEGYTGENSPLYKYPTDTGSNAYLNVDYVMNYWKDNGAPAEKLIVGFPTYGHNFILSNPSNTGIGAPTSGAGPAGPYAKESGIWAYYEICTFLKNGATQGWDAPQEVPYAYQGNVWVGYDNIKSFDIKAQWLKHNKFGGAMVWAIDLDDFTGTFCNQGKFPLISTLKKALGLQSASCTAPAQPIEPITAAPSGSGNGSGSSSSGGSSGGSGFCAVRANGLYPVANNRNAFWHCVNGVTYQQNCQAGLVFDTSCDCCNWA
Experiment [2] has as its target recombinant human CHIT1 (Homo sapiens (Human), UniProt Q13231). Nature of the experiment: Human CHIT1 activity assay (fluorescent 4MU substrate). It is filed as biochemical. Conditions: citrate buffer pH 5.2, 37° C., 60 minutes; substrate 4-methylumbelliferyl β-D-N,N′,N″-triacetylchitotriose; read-out: Activity on hCHIT1, IC50.

Molecules are shown by their SMILES. Some results are limits rather than exact numbers.

Sequence of recombinant human CHIT1 (Q13231 22-466): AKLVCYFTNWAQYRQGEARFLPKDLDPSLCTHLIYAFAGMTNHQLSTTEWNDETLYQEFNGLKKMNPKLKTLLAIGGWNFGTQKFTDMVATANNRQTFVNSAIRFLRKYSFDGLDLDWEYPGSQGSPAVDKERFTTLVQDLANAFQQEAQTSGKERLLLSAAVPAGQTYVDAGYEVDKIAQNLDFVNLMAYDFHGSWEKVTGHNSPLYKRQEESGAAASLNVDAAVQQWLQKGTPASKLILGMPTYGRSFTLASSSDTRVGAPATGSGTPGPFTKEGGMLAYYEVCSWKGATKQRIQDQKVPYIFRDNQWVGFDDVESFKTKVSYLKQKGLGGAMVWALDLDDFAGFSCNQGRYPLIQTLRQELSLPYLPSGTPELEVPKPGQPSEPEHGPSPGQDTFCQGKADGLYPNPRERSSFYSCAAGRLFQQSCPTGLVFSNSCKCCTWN

Consider `Nc1nnc(N2CCC(N3Cc4ccncc4OC[C@@H]3Cc3ccc(Cl)cc3)CC2)[nH]1` [Example 63, (S)-5-(4-(3-(4-chlorobenzyl)-2,3-dihydropyrido[4,3-f][1,4]oxazepin-4(5H)-yl)piperidin-1-yl)-4H-1,2,4-triazol-3-amine], for which the IC50 is below 100 nM in experiment [1] and 1000 to 10000 nM in experiment [2].
